Laboratory results reported in PubChem BioAssay AID192 (DTP/NCI, 2004).
Toxic doses and inconclusive results are not listed.

Tested on: BDF1 mice, B16 melanoma ip, median survival T/C
Experiment: NCI In Vivo Anticancer Drug Screen. Data for tumor model B16 Melanoma (intraperitoneal) in B6D2F1 (BDF1) mice
Settings: endpoint: median survival time, higher = longer survival
Procedure, shortened: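 Tumor-bearing mice received test compound or vehicle. Survival or tumor size was then measured in both groups. The treated-group figure was divided by the control-group figure.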

[1] = dose: 12.5 mg/kg/injection, schedule: Q01DX009 (ip), vehicle: saline with Tween-80
[2] = dose: 25.0 mg/kg/injection, schedule: Q01DX009 (ip), vehicle: saline with Tween-80
[3] = dose: 50.0 mg/kg/injection, schedule: Q01DX009 (ip), vehicle: saline with Tween-80
[4] = dose: 100.0 mg/kg/injection, schedule: Q01DX009 (ip), vehicle: Klucel (hydroxypropylcellulose) (HPC)
[5] = dose: 200.0 mg/kg/injection, schedule: Q01DX009 (ip), vehicle: Klucel (hydroxypropylcellulose) (HPC)
[6] = dose: 6.25 mg/kg/injection, schedule: Q01DX009 (ip), vehicle: saline with Tween-80
[7] = dose: 2.0 mg/kg/injection, schedule: Q01DX009 (ip), vehicle: Klucel (hydroxypropylcellulose) (HPC)
[8] = dose: 400.0 mg/kg/injection, schedule: Q01DX009 (ip), vehicle: Klucel (hydroxypropylcellulose) (HPC)
[9] = dose: 25.0 mg/kg/injection, schedule: Q01DX009 (ip), vehicle: saline
[10] = dose: 50.0 mg/kg/injection, schedule: Q01DX009 (ip), vehicle: saline
[11] = dose: 100.0 mg/kg/injection, schedule: Q01DX009 (ip), vehicle: saline
[12] = dose: 200.0 mg/kg/injection, schedule: Q01DX009 (ip), vehicle: saline

CC(=O)Oc1ccccc1O
T/C (dose: 25.0 mg/kg/injection, schedule: Q01DX009 (ip), vehicle: saline + Tween-80 + alcohol): 100 % of control | T/C (dose: 50.0 mg/kg/injection, schedule: Q01DX009 (ip), vehicle: saline + Tween-80 + alcohol): 109 % of control | T/C (dose: 100.0 mg/kg/injection, schedule: Q01DX009 (ip), vehicle: saline + Tween-80 + alcohol): 104 % of control

CC(Cc1ccc(O)c(O)c1)C(C)Cc1ccc(O)c(O)c1 (stereo not given)
T/C (dose: 750.0 mg/kg/injection, schedule: Q01DX009 (oral), vehicle: saline): 100 % of control | T/C (dose: 1500.0 mg/kg/injection, schedule: Q01DX009 (oral), vehicle: saline): 97 % of control

CC[PH+](CC)CC[S-].CC[PH+](CC)CC[S-].[Au+].[Au+]
T/C (dose: 2.5 mg/kg/injection, schedule: Q01DX009 (ip), vehicle: Klucel (hydroxypropylcellulose) (HPC)): 109 % of control | T/C (dose: 5.0 mg/kg/injection, schedule: Q01DX009 (ip), vehicle: Klucel (hydroxypropylcellulose) (HPC)): 112 % of control | T/C (dose: 10.0 mg/kg/injection, schedule: Q01DX009 (ip), vehicle: Klucel (hydroxypropylcellulose) (HPC)): 118 % of control | T/C (dose: 20.0 mg/kg/injection, schedule: Q01DX009 (ip), vehicle: Klucel (hydroxypropylcellulose) (HPC)): 112 % of control | T/C (dose: 40.0 mg/kg/injection, schedule: Q01DX009 (ip), vehicle: Klucel (hydroxypropylcellulose) (HPC)): 110 % of control

Nc1nc(=S)c2n[nH]nc2[nH]1
T/C [1]: 96 % of control | T/C [2]: 108 % of control | T/C [3]: 113 % of control | T/C (dose: 100.0 mg/kg/injection, schedule: Q01DX009 (ip), vehicle: saline with Tween-80): 88 % of control

O=C(C(=O)c1cc(Br)ccc1O)c1cc(Br)ccc1O
T/C [4]: 96 % of control | T/C [5]: 106 % of control

COC(=O)C[C@](O)(CCC(C)(C)O)C(=O)O[C@@H]1C(OC)=C[C@]23CCCN2CCc2cc4c(cc2[C@H]13)OCO4
T/C (dose: 0.25 mg/kg/injection, schedule: Q01DX009 (ip), vehicle: saline): 152 % of control | T/C (dose: 1.0 mg/kg/injection, schedule: Q01DX009 (ip), vehicle: saline): 150 % of control | T/C (dose: 2.0 mg/kg/injection, schedule: Q01DX009 (ip), vehicle: saline): 102 % of control | T/C (dose: 32.0 micrograms/kg/injection, schedule: Q01DX009 (ip), vehicle: saline): 104 % of control | T/C (dose: 63.0 micrograms/kg/injection, schedule: Q01DX009 (ip), vehicle: saline): 109 % of control | T/C (dose: 125.0 micrograms/kg/injection, schedule: Q01DX009 (ip), vehicle: saline): 113 % of control

CCOC(=O)c1ccc(Nc2sc(C(=O)c3ccc(Br)cc3)c(N)c2C#N)cc1
T/C [6]: 92 % of control | T/C [1]: 87 % of control | T/C [2]: 88 % of control | T/C [3]: 86 % of control

C[C@H]1CN1C1=CC(=O)C(N2C[C@@H]2C)=CC1=O
T/C (dose: 0.5 mg/kg/injection, schedule: Q01DX009 (ip), vehicle: saline with Tween-80): 102 % of control | T/C (dose: 1.0 mg/kg/injection, schedule: Q01DX009 (ip), vehicle: saline with Tween-80): 106 % of control | T/C [7]: 123 % of control | T/C (dose: 4.0 mg/kg/injection, schedule: Q01DX009 (ip), vehicle: Klucel (hydroxypropylcellulose) (HPC)): 115 % of control

CCN(CC)c1nc(N(CC)CC)nc(N(CC)CC)n1
T/C [2]: 89 % of control | T/C [3]: 94 % of control

O=C=Nc1ccc(Cc2ccc(N=C=O)cc2)cc1
T/C [8]: 123 % of control

Nc1nc(=S)c2[nH]c(N=Nc3ccc(S(=O)(=O)O)cc3)nc2[nH]1
T/C (dose: 6.25 mg/kg/injection, schedule: Q04DX003 (ip), vehicle: saline): 107 % of control | T/C (dose: 12.5 mg/kg/injection, schedule: Q04DX003 (ip), vehicle: saline): 109 % of control

Fc1ccc(/C=C2/c3cc(Cl)ccc3-c3c(Cl)cc(Cl)cc32)cc1
T/C [6]: 90 % of control | T/C [1]: 90 % of control | T/C [2]: 95 % of control

CC1(CC(C)(C)C2CCCCC2)OCCO1
T/C (dose: 12.5 mg/kg/injection, schedule: Q01DX009 (ip), vehicle: other): 100 % of control | T/C (dose: 25.0 mg/kg/injection, schedule: Q01DX009 (ip), vehicle: other): 93 % of control | T/C (dose: 50.0 mg/kg/injection, schedule: Q01DX009 (ip), vehicle: other): 90 % of control

CCN(CC)C(=O)c1cccnc1
T/C (dose: 12.5 mg/kg/injection, schedule: Q01DX009 (ip), vehicle: saline): 109 % of control | T/C [9]: 123 % of control | T/C [10]: 107 % of control | T/C [11]: 103 % of control | T/C [12]: 102 % of control

Cc1cc(=O)n(C)c2ccccc12
T/C (dose: 12.5 mg/kg/injection, schedule: Q01DX009 (ip), vehicle: Klucel (hydroxypropylcellulose) (HPC)): 90 % of control | T/C (dose: 25.0 mg/kg/injection, schedule: Q01DX009 (ip), vehicle: Klucel (hydroxypropylcellulose) (HPC)): 90 % of control | T/C (dose: 50.0 mg/kg/injection, schedule: Q01DX009 (ip), vehicle: Klucel (hydroxypropylcellulose) (HPC)): 90 % of control | T/C (dose: 50.0 mg/kg/injection, schedule: Q04DX003 (ip), vehicle: Klucel (hydroxypropylcellulose) (HPC)): 107 % of control | T/C [4]: 90 % of control | T/C (dose: 100.0 mg/kg/injection, schedule: Q04DX003 (ip), vehicle: Klucel (hydroxypropylcellulose) (HPC)): 102 % of control | T/C (dose: 200.0 mg/kg/injection, schedule: Q04DX003 (ip), vehicle: Klucel (hydroxypropylcellulose) (HPC)): 102 % of control

C[C@]1(O)CC[C@H]2[C@@H]3CCC4=CC(=O)CC[C@]4(C)[C@@]3(F)[C@@H](O)C[C@@]21C
T/C (dose: 12.5 mg/kg/injection, schedule: Q02DX009 (ip), vehicle: Klucel (hydroxypropylcellulose) (HPC)): 92 % of control | T/C (dose: 25.0 mg/kg/injection, schedule: Q02DX009 (ip), vehicle: Klucel (hydroxypropylcellulose) (HPC)): 100 % of control | T/C (dose: 50.0 mg/kg/injection, schedule: Q02DX009 (ip), vehicle: Klucel (hydroxypropylcellulose) (HPC)): 120 % of control | T/C (dose: 100.0 mg/kg/injection, schedule: Q02DX009 (ip), vehicle: Klucel (hydroxypropylcellulose) (HPC)): 107 % of control | T/C (dose: 200.0 mg/kg/injection, schedule: Q02DX009 (ip), vehicle: Klucel (hydroxypropylcellulose) (HPC)): 99 % of control | T/C (dose: 400.0 mg/kg/injection, schedule: Q02DX009 (ip), vehicle: Klucel (hydroxypropylcellulose) (HPC)): 92 % of control

NCC(=O)NC(CCCN=C(N)N)C(=O)O (stereo not given)
T/C [10]: 103 % of control | T/C [11]: 98 % of control | T/C [12]: 92 % of control

C1CCN(CCC2CCNCC2)CC1
T/C [9]: 109 % of control | T/C [10]: 90 % of control

NC(CC(=O)O)CC(=O)O
T/C (dose: 25.0 mg/kg/injection, schedule: Q01DX009 (ip), vehicle: suspension in saline): 91 % of control | T/C (dose: 50.0 mg/kg/injection, schedule: Q01DX009 (ip), vehicle: suspension in saline): 92 % of control | T/C (dose: 100.0 mg/kg/injection, schedule: Q01DX009 (ip), vehicle: suspension in saline): 103 % of control | T/C (dose: 200.0 mg/kg/injection, schedule: Q01DX009 (ip), vehicle: suspension in saline): 100 % of control | T/C (dose: 400.0 mg/kg/injection, schedule: Q01DX009 (ip), vehicle: suspension in saline): 90 % of control

CC(=O)OC1OC(=O)C(C)(C(C)=O)C1C (stereo not given)
T/C (dose: 2.5 mg/kg/injection, schedule: Q01DX009 (ip), vehicle: distilled water + alcohol): 104 % of control | T/C (dose: 5.0 mg/kg/injection, schedule: Q01DX009 (ip), vehicle: distilled water + alcohol): 102 % of control | T/C (dose: 10.0 mg/kg/injection, schedule: Q01DX009 (ip), vehicle: distilled water + alcohol): 104 % of control

Nc1ncnc2c1ccn2C1OC(CO)C(O)C1O (stereo not given)
T/C (dose: 0.32 mg/kg/injection, schedule: Q01DX009 (ip), vehicle: saline): 107 % of control | T/C (dose: 0.5 mg/kg/injection, schedule: Q01DX009 (ip), vehicle: Klucel (hydroxypropylcellulose) (HPC)): 91 % of control | T/C (dose: 0.63 mg/kg/injection, schedule: Q01DX009 (ip), vehicle: saline): 120 % of control | T/C (dose: 1.0 mg/kg/injection, schedule: Q01DX009 (ip), vehicle: Klucel (hydroxypropylcellulose) (HPC)): 99 % of control | T/C [7]: 90 % of control

O/N=C1\CCCC\C1=N/O.O/N=C1\CCCC\C1=N/O.[Pd]
T/C (dose: 25.0 mg/kg/injection, schedule: Q04DX003 (ip), vehicle: other): 101 % of control | T/C (dose: 50.0 mg/kg/injection, schedule: Q04DX003 (ip), vehicle: other): 91 % of control | T/C (dose: 100.0 mg/kg/injection, schedule: Q04DX003 (ip), vehicle: other): 93 % of control

Cc1cc(C)c(NC(=O)c2cccc(C(=O)Nc3c(C)cc(C)cc3C)c2)c(C)c1
T/C [4]: 93 % of control | T/C [5]: 86 % of control | T/C [8]: 90 % of control

COc1cc([N+](=O)[O-])c2ncccc2c1
T/C [4]: 115 % of control | T/C [5]: 110 % of control
